In ChEMBL document CHEMBL3351422, “Discovery of N-substituted 7-azaindoline derivatives as potent, orally available M1 and M4 muscarinic acetylcholine receptors selective agonists” (Bioorg Med Chem Lett, 2014):

Assays:
[1] = Volume of distribution at steady state in monkey at 0.25 mg/kg, iv and 2.5 mg/kg, po; assay type: ADME, organism-based, Macaca mulatta; settings: rhesus monkey, in vivo, read-out: Vdss
[2] = molecular target: T1, Muscarinic acetylcholine receptor M4 (Homo sapiens) (UniProt P08173); assay: Intrinsic activity at muscarinic M4 receptor (unknown origin) by calcium mobilization assay; assay type: functional
T1 sequence (whole entry): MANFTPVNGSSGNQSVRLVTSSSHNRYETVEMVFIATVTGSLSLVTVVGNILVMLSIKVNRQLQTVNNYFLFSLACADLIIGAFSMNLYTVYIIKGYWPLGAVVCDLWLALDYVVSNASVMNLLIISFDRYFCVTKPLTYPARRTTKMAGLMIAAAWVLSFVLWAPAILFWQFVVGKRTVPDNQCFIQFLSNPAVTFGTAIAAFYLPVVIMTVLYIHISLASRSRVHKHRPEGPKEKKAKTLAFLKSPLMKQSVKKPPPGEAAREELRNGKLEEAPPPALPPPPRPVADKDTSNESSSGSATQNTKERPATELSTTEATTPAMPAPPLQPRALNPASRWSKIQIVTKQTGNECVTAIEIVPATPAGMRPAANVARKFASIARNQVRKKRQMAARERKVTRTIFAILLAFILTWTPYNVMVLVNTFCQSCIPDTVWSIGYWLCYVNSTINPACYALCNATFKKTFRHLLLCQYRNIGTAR

[3] = molecular target: 5-hydroxytryptamine receptor 3A (Homo sapiens) (UniProt P46098); assay: Inhibition of human 5-HT3 receptor at 3 uM by radioligand binding assay
Rattus norvegicus [4] = species: Rattus norvegicus; assay: Inhibition of rat purinergic P2Y receptor at 3 uM by radioligand binding assay
[5] = molecular target: L-type calcium channel, benzothiazepine binding site (Rattus norvegicus, UniProt P22002+P27732+Q02485); assay: Inhibition of rat L-type calcium channel benzothiazepine binding site at 3 uM by radioligand binding assay; assay type: protein assay
[6] = Lipophilicity, log P of the compound; assay type: physicochemical; settings: octanol/water
[7] = Blood brain barrier penetration in rat at 0.25 mg/kg, iv and 2.5 mg/kg, po; assay type: ADME, organism-based
[8] = molecular target: Cannabinoid receptor 1 (Homo sapiens) (UniProt P21554); assay: Inhibition of human CB1 receptor at 3 uM by radioligand binding assay
[9] = molecular target: Endothelin receptor type B (Homo sapiens) (UniProt P24530); assay: Inhibition of human ETB receptor at 3 uM by radioligand binding assay
[10] = molecular target: Muscarinic acetylcholine receptor M4 (Homo sapiens, UniProt P08173); assay: Agonist activity at muscarinic M4 receptor (unknown origin) by calcium mobilization assay; assay type: functional
[11] = molecular target: T2, Muscarinic acetylcholine receptor M2 (Homo sapiens) (UniProt P08172); assay: Agonist activity at muscarinic M2 receptor (unknown origin) at 0.3 uM by calcium mobilization assay; assay type: functional
T2 sequence (whole entry): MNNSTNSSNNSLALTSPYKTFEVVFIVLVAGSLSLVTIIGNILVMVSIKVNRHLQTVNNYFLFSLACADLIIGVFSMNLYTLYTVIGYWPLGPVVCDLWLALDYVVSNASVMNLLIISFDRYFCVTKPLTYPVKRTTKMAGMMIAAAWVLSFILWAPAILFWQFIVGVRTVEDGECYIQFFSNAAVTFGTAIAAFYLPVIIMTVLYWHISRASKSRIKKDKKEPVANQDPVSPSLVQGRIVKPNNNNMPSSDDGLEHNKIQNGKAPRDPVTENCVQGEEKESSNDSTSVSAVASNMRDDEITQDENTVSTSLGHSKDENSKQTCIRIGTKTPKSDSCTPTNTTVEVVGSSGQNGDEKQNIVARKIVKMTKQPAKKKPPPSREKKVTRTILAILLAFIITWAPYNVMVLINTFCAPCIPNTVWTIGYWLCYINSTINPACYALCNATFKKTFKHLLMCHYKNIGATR

[12] = molecular target: Muscarinic acetylcholine receptor M3 (Homo sapiens) (UniProt P20309); assay: Agonist activity at muscarinic M3 receptor (unknown origin) at 0.3 uM by calcium mobilization assay; assay type: functional
[13] = Cmax in rat at 0.25 mg/kg, iv and 2.5 mg/kg, po; assay type: ADME, organism-based; settings: in vivo
[14] = molecular target: Histamine H1 receptor (Homo sapiens) (UniProt P35367); assay: Inhibition of human histamine H1 receptor at 3 uM by radioligand binding assay
hERG (KCNH2) = hERG (KCNH2) (Homo sapiens, UniProt Q12809); assay: Inhibition of human ERG channel at 3 uM by radioligand binding assay
[15] = Clearance in monkey at 0.25 mg/kg, iv and 2.5 mg/kg, po; assay type: ADME, organism-based, Macaca mulatta; settings: rhesus monkey, in vivo
[16] = molecular target: Alpha-1B adrenergic receptor (Rattus norvegicus) (UniProt P15823); assay: Inhibition of rat alpha1B adrenergic receptor at 3 uM by radioligand binding assay
Rattus norvegicus [17] = species: Rattus norvegicus; assay: Inhibition of rat thyroid hormone receptor at 3 uM by radioligand binding assay
[18] = molecular target: Sodium-dependent dopamine transporter (Homo sapiens) (UniProt Q01959); assay: Inhibition of human DAT at 3 uM by radioligand binding assay
Rattus norvegicus [19] = species: Rattus norvegicus; assay: Inhibition of rat GABAA central type receptor muscimol binding site at 3 uM by radioligand binding assay
[20] = molecular target: T1, Muscarinic acetylcholine receptor M4 (Homo sapiens); assay: Agonist activity at muscarinic M4 receptor (unknown origin) at 0.3 uM by calcium mobilization assay; assay type: functional
[21] = molecular target: Mu-type opioid receptor (Homo sapiens) (UniProt P35372); assay: Inhibition of human mu opioid receptor at 3 uM by radioligand binding assay
[22] = molecular target: Histamine H2 receptor (Homo sapiens) (UniProt P25021); assay: Inhibition of human histamine H2 receptor at 3 uM by radioligand binding assay
[23] = molecular target: T3, Muscarinic acetylcholine receptor M5 (Homo sapiens) (UniProt P08912); assay: Agonist activity at muscarinic M5 receptor (unknown origin) at 10 uM by calcium mobilization assay; assay type: functional
T3 sequence (whole entry): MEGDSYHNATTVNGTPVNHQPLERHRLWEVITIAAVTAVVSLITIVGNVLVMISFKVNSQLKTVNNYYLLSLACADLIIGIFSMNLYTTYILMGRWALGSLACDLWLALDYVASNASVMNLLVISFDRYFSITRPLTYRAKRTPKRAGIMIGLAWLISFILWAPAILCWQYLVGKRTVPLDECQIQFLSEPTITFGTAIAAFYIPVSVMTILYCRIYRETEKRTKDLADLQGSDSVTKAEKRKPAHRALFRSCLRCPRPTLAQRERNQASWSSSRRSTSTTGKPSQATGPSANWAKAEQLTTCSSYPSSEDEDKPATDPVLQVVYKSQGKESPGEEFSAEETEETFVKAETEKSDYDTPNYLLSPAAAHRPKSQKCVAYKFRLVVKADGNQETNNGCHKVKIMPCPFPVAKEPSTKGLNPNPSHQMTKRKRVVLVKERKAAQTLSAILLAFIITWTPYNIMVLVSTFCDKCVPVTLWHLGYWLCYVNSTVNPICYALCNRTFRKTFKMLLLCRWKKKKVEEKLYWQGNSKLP

[24] = Cmax in monkey at 0.25 mg/kg, iv and 2.5 mg/kg, po; assay type: ADME, organism-based, Macaca mulatta; settings: rhesus monkey, in vivo

Chain of Endothelin receptor type B (Homo sapiens) (P24530 whole entry): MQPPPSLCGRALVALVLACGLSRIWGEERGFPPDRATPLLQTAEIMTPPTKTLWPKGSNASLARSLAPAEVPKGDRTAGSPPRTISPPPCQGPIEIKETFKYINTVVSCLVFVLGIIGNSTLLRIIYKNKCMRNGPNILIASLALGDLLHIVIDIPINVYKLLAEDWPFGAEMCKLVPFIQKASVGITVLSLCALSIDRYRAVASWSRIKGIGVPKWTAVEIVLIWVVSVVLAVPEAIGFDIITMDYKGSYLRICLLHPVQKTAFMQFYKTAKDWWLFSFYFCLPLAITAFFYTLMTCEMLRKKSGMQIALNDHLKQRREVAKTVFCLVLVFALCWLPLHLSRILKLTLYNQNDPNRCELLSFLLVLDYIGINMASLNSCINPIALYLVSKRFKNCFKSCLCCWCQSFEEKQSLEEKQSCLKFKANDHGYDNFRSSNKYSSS
Chain of Mu-type opioid receptor (Homo sapiens) (P35372 whole entry): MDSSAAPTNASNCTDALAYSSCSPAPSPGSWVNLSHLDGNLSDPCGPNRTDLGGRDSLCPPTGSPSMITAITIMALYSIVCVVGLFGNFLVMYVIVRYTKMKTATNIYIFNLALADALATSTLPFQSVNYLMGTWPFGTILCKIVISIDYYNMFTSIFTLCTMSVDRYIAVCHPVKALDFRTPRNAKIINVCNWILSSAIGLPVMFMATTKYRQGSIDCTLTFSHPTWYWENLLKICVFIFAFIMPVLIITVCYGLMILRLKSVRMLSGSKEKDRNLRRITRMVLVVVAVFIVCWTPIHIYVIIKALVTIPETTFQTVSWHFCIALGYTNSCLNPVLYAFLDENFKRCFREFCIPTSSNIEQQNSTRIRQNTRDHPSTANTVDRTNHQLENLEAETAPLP
Chain of Cannabinoid receptor 1 (Homo sapiens) (P21554 whole entry): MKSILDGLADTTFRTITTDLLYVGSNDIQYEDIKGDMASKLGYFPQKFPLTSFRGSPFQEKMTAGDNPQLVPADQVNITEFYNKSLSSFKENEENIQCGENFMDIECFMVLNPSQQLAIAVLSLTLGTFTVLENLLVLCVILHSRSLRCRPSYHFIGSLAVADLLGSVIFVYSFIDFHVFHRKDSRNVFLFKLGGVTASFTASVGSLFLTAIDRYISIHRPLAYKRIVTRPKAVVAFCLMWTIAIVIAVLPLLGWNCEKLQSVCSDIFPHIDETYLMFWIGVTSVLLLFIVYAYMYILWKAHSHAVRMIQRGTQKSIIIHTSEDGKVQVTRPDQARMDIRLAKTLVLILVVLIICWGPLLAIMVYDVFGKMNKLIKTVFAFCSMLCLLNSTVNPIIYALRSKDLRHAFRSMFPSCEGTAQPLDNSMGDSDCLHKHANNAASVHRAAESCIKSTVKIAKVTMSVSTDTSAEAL
Chain of 5-hydroxytryptamine receptor 3A (Homo sapiens) (P46098 whole entry): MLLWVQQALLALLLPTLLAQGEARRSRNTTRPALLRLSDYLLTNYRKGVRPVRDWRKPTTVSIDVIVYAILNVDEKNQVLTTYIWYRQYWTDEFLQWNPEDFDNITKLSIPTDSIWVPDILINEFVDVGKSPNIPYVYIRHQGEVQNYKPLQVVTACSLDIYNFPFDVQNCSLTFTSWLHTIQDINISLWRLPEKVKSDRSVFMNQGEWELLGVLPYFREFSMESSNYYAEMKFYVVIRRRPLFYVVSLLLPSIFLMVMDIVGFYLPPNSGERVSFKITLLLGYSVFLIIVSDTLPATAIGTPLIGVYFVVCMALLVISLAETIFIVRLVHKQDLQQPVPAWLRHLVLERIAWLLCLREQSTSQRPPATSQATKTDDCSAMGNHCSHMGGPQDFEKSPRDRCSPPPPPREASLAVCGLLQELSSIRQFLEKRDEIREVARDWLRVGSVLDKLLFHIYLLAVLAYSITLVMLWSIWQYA
Chain of hERG (KCNH2) (Q12809 whole entry): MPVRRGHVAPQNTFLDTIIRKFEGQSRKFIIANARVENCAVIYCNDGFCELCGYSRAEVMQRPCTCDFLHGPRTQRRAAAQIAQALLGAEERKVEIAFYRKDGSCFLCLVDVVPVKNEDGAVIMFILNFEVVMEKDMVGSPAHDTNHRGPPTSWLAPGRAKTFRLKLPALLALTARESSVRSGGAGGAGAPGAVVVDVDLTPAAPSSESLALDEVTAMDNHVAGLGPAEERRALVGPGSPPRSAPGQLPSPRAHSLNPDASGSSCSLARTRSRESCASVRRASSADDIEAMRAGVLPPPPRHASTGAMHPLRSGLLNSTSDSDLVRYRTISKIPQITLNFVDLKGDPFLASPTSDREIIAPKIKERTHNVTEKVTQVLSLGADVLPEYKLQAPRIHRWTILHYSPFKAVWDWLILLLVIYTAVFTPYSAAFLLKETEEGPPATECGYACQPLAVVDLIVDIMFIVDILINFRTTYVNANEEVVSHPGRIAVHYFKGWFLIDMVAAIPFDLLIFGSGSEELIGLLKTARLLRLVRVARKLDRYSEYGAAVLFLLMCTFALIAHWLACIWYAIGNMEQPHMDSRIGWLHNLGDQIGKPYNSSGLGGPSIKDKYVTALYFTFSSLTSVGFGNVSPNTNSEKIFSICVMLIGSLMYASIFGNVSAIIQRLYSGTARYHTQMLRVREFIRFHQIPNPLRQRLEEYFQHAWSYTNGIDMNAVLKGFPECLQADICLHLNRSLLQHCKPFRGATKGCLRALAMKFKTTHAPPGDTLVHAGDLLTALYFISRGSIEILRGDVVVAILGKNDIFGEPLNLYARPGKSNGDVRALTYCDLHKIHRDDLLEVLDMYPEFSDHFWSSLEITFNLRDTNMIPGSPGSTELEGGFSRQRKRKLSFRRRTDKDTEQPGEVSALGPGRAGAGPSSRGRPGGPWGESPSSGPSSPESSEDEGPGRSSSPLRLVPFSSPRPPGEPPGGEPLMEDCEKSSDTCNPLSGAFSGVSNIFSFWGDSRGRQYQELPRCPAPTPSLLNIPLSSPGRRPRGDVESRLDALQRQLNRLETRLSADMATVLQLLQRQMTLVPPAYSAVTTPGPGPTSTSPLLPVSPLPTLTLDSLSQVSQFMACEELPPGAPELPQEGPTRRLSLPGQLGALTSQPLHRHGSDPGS
Chain of Alpha-1B adrenergic receptor (Rattus norvegicus) (P15823 whole entry): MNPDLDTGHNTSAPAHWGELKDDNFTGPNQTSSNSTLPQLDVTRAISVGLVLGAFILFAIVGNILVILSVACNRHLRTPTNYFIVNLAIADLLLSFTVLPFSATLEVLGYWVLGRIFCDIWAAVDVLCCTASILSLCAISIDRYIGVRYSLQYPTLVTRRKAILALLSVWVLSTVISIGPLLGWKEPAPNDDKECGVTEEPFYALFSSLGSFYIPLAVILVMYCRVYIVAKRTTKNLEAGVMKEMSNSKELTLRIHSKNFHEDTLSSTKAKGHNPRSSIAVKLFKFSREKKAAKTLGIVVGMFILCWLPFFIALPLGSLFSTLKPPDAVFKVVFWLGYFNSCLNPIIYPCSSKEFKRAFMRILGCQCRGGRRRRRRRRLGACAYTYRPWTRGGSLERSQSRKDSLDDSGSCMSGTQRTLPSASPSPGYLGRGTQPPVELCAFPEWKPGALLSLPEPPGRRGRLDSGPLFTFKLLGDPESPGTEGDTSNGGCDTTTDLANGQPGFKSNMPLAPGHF
Chain of Muscarinic acetylcholine receptor M3 (Homo sapiens) (P20309 whole entry, looked up): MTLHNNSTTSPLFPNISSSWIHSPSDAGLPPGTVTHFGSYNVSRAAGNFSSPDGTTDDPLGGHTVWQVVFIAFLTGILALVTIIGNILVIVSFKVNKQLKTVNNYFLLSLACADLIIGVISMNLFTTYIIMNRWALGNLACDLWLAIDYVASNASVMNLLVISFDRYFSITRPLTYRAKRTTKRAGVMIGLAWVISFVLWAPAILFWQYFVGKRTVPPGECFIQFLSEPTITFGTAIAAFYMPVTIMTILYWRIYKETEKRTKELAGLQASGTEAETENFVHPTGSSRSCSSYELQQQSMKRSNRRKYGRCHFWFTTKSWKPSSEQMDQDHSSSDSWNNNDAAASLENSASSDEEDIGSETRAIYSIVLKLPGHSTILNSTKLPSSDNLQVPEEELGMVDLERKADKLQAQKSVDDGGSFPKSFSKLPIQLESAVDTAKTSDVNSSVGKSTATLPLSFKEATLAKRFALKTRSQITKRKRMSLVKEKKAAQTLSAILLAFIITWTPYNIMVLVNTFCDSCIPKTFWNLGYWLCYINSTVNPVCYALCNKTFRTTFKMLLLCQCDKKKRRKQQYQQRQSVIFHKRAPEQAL
Chain of Sodium-dependent dopamine transporter (Homo sapiens) (Q01959 whole entry): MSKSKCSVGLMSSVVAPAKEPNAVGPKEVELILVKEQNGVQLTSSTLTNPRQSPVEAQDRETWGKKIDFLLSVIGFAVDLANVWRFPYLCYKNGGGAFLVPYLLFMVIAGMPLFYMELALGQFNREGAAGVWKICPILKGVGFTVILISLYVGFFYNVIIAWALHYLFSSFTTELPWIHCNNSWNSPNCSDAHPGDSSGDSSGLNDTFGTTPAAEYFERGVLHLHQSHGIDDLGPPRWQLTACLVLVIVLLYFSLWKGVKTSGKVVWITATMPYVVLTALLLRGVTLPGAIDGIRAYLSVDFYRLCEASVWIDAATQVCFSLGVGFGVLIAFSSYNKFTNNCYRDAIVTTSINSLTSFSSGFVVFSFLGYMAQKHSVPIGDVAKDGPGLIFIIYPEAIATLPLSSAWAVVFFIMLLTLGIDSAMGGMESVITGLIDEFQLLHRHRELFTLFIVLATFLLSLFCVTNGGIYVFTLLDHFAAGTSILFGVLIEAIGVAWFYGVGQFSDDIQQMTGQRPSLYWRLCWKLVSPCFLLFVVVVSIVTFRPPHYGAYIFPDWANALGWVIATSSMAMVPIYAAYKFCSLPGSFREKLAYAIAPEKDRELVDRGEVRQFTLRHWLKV

SMILES: CCOC(=O)N1CCC(CN2CCC3(CC2)CN(C(=O)N(C)C)c2ncccc23)CC1.O=C(O)/C=C/C(=O)O
- Vd [1]: 2.3 L/kg
- Intrinsic activity [2]: 108%
- inhibition [3]: -10%
- inhibition (Rattus norvegicus [4]): 9%
- inhibition at 3 µM [5]: -21%
- logP [6]: 1.3
- Kp [7]: 0.7
- inhibition [8]: 11%
- inhibition [9]: -1%
- EC50 [10]: 47 nM
- Activity [11]: 10%
- Activity [12]: 2%
- Cmax [13]: 207 ng/mL
- inhibition [14]: -2%
- inhibition at 3 µM (hERG (KCNH2)): 0%
- clearance [15]: 16.5 mL/min/kg
- inhibition [16]: 9%
- inhibition (Rattus norvegicus [17]): 4%
- inhibition [18]: -2%
- inhibition (Rattus norvegicus [19]): 2%
- Activity [20]: 118%
- inhibition [21]: 3%
- inhibition [22]: 4%
- Activity [23]: 11%
- Cmax [24]: 30.7 ng/mL
